Assay results from patent US4122184A, “Benzimidazole insecticides” (priority 1977, dated 1978).

Columns and labels:
Oriental Cockroach = test: Oriental Roach Test; format: in vivo, Blatta orientalis (Orthoptera); settings: 24 h
Procedure: A rearing pan of late instar (3-4 months old) roaches is placed in a cold room for about 1 hour. Ten nymphs are taken from the pan and placed in each cage and the caged insects are kept at 70°-80° F. for 1 hour. The test cages are then sprayed in the manner indicated above in the milkweed bug test using 5 ml. of a formulation containing a specified amount of the insecticide. The test cages are held for 72 hours during which time the cockroaches are neither fed nor watered. Controls consist of 2 unsprayed cages, two cages sprayed with the formulation alone and 2 cages with a formulation containing 1000 ppm of heptachlor. Mortality counts are made 24 hours after spraying by shaking the cages lightly. All cockroaches remaining in the bottom are counted as dead.

Boll Weevil [1] = test: Boll Weevil Test; format: in vivo, Anthonomus grandis (Coleoptera); settings: 48 h
From the text: The procedure is identical to that employed for the Mexican bean beetle and the Southern armyworm, except that 10 adult boll weevils are placed on cotton leaves that have been dipped into formulations of the test compounds. The same rating scale is used.

House Fly = test: Housefly (Contact) Test; format: in vivo, Musca domestica (Diptera); settings: 50 ppm, 24 h
Procedure: Rearing cages containing four-day old adult house flies are chilled at 35°-40° F. for about 1 hour. One hundred flies are transferred from the rearing cage to each test cage using a small scoop. The caged flies are kept for 1-2 hours at 70°-80° F. The cages are sprayed in the same manner as described for the milkweed bug with 5 ml. of the test formulation. Two unsprayed cages are held as controls and two cages are sprayed with a 50 ppm DDT formulation as a reference standard. Mortality counts are made 24 hours after spraying. […] The same rating scale is employed as heretofore.

Confused Flour Beetle = test: Field trial (first summer), topical; format: in vivo; settings: .3125 μg/μl
Procedure: (§1) In a variation of the above test, 1 microliter of a test solution containing a predetermined number of micrograms of benzimidazole was applied directly to larvae or adult insects.
(§2) During the previous summer similar field trials were conducted employing the same tests as heretofore but with some additional species of insects not included in the later tests. The results listed below are for tests in which an insect mortality was established by a given application route and at a given concentration in a particular test. The same 0 - 9 scoring system is used as is the designation of compounds by alphabetical symbols.

Picnic Beetle = test: Field trial (first summer), topical; format: in vivo; settings: .078125 μg/μl
Procedure: as §1, §2

[2] = Solubility of sodium salt; format: physicochemical
Two-spotted Spider Mite = Two-spotted Spider Mite test; format: in vivo, Tetranychus urticae (Acarina); settings: 25 ppm, 48 h
Procedure: The procedure in this test is the same as that in the previous aphid test, except that about 100 two-spotted spider mites from a stock colony raised on squash plants are transferred to a cut squash cotyledon. The mortality is estimated 48 hours after spraying. The same rating scale is used.

Boll Weevil [3] = test: Field trial (first summer), topical; format: in vivo, Anthonomus grandis; settings: .078125 μg/μl
Procedure: as §1, §2

[4] = system: Southern Corn Rootworm Adults; test: Field trial, contact poison test; format: in vivo
How it was run: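 Infested host plants were kept in water-filled bottles with cellucotton around the stem and sprayed with different compound concentrations by atomizer at 10 psi from arm's length. Mortality was read at 24, 48 and 72 h on a 0–9 scale (0 = 0-10%, 9 = 91-100% mortality), averaged per concentration.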

[5] = system: Southern Corn Rootworm Adults; test: Field trial, stomach poison test; format: in vivo
How it was run: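 Spray (10 psi) or dip leaves from infested plants in test solution; air-dry; put in Petri dish; add 5 or 10 insects; score mortality 0–9 at 24/48/72 h. 1–2 reps, usually 2–3 rates.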

Which results are given for `O=[N+]([O-])c1cc(C(F)(F)F)cc2nc(C(F)(F)F)[nH]c12.[Na]` [B, 2,6-bis(trifluoromethyl)-4-nitrobenzimidazole, sodium salt]?
mortality rating (Oriental Cockroach; 25 ppm): .5; mortality rating (Oriental Cockroach; 100 ppm): 3.5; mortality rating (Boll Weevil [1]; 25 ppm): 8.5; mortality rating (Boll Weevil [1]; 250 ppm): 8.5; mortality rating (House Fly): 8.5; insect mortality rating (Confused Flour Beetle): 9 (91-100 percent mortality); insect mortality rating (Picnic Beetle): 9 (91-100 percent mortality); solubility in acid ([2]; acid): insoluble in acid; solubility in water ([2]; water): water soluble; mortality rating (Two-spotted Spider Mite): 8.5; insect mortality rating (Boll Weevil [3]): 9 (91-100 percent mortality); average mortality rating ([4]; 25 ppm): 0 (0-10 percent); average mortality rating ([4]; 50 ppm): 3; average mortality rating ([4]; 100 ppm): 8; average mortality rating ([5]; 25 ppm): 4; average mortality rating ([5]; 50 ppm): 5; average mortality rating ([5]; 100 ppm): 9 (91-100 percent mortality)
